This passage reports Ki results from US9663530B2, “5-oxa-2-azabicyclo[2.2.2]OCTAN-4-yl and 5-oxa-2-azabicyclo[2.2.1]heptan-4-yl derivatives” (Hoffmann-La Roche Inc., priority 2014, dated 2017).

For one experiment, the target named is mouse TAAR1 (Mus musculus (Mouse), UniProt Q923Y8). As to the kind of experiment: Radioligand binding assay on mouse TAAR1. Conditions: mouse TAAR1 (first value of the cell); membranes of HEK-293 cells stably expressing mouse TAAR1; read-out: Ki (μM) mouse/rat.
The target of a further experiment is rat TAAR1 (Rattus norvegicus (Rat), UniProt Q923Y9). The experiment is described as follows: Radioligand binding assay on rat TAAR1. Conditions: rat TAAR1 (second value of the cell); membranes of HEK-293 cells stably expressing rat TAAR1; read-out: Ki (μM) mouse/rat. Put shortly:
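Membranes from HEK293 cells stably expressing rat TAAR1 were incubated 1 h at 4 °C, in duplicate, with the tritiated oxazol-2-ylamine radioligand added at 3.3×Kd (Kd set per membrane batch by saturation). Buffer was 20 mM HEPES-NaOH pH 7.4, 10 mM MgCl2, 2 mM CaCl2; filtration and scintillation counting followed. […]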

mouse TAAR1, sequence (Q923Y8 whole entry): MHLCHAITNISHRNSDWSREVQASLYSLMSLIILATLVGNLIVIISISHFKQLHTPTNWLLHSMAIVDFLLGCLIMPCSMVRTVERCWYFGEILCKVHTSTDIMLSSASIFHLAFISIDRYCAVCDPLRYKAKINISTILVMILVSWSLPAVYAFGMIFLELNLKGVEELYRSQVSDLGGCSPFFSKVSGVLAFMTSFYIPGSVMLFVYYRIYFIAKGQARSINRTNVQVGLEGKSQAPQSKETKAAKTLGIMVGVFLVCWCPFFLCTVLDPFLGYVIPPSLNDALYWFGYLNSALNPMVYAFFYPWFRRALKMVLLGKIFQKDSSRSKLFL
rat TAAR1, sequence (Q923Y9 whole entry): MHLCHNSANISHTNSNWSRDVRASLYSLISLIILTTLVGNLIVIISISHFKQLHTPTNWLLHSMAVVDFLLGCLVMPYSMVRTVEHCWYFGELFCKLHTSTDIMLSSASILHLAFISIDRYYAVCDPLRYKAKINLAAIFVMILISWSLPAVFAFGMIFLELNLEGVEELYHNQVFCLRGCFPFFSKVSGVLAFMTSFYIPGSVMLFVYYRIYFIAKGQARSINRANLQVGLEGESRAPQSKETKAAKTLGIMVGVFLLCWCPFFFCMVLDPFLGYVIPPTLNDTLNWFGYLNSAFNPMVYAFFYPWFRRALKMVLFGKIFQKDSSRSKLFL

For the compound `O=C(Nc1ccc([C@]23CN[C@H](CO2)C3)cc1)c1cccc(Cl)c1` [Example 59, 3-Chloro-N-[4-[(1S,4R)-5-oxa-2-azabicyclo[2.2.1]heptan-4-yl]phenyl]benzamide], the Ki on mouse TAAR1 is 0.0054 µM; on rat TAAR1, 0.0774 µM.
In the case of `FC(F)(F)c1ccc(Nc2ccc(C[C@]34CN[C@H](CO3)C4)cc2)nc1` [Example 31, N-[4-[[(1S,4S)-5-Oxa-2-azabicyclo[2.2.1]heptan-4-yl]methyl]phenyl]-5-(trifluoromethyl)pyridin-2-amine], the Ki on mouse TAAR1 was 0.946 µM; on rat TAAR1, 0.163 µM.
Regarding `CCOc1ccc(C(=O)Nc2ccc(C34CCC(CO3)NC4)cc2)cn1` (racemic) [Example 12, (RS)-6-Ethoxy-N-[4-(5-oxa-2-azabicyclo[2.2.2]octan-4-yl)phenyl]pyridine-3-carboxamide], the Ki amounted to 0.0219 µM on mouse TAAR1 and 7.06 µM at rat TAAR1.
Taken in the same sequence, the figures for `CCOc1ccc(C(=O)Nc2ccc(C[C@]34CN[C@H](CO3)C4)cc2)cn1` [Example 26, 6-Ethoxy-N-[4-[[(1S,4S)-5-oxa-2-azabicyclo[2.2.1]heptan-4-yl]methyl]phenyl]pyridine-3-carboxamide] were 1.14 µM and 0.441 µM.
Take `CCc1ncc(C(=O)Nc2ccc(C34CCC(CO3)NC4)cc2)cn1` (racemic) [Example 35, (RS)-2-Ethyl-N-[4-(5-oxa-2-azabicyclo[2.2.2]octan-4-yl)phenyl]pyrimidine-5-carboxamide]: the Ki is 0.153 µM at mouse TAAR1 and 10 µM at rat TAAR1.
Taken in the same sequence, the figures for `O=C(Nc1ccc(Cl)cc1)Nc1ccc(C[C@@]23CN[C@@H](CO2)C3)cc1` [Example 23, 1-(4-Chlorophenyl)-3-[4-[[(1R,4R)-5-oxa-2-azabicyclo[2.2.1]heptan-4-yl]methyl]phenyl]urea] were 0.0137 µM and 0.0375 µM.
`FC(F)(F)c1cnc(Nc2ccc(C[C@]34CN[C@H](CO3)C4)cc2)cn1` [Example 32, N-[4-[[(1S,4S)-5-Oxa-2-azabicyclo[2.2.1]heptan-4-yl]methyl]phenyl]-5-(trifluoromethyl)pyrazin-2-amine]: the Ki at mouse TAAR1 is more than 10 µM; on rat TAAR1, 0.854 µM.
Taken in the same sequence, the figures for `FC(F)(F)c1ccc(Nc2ccc(C34CCC(CO3)NC4)cc2)nc1` (racemic) [Example 4, (RS)—N-[4-(5-Oxa-2-azabicyclo[2.2.2]octan-4-yl)phenyl]-5-(trifluoromethyl)pyridin-2-amine] were 0.0111 µM and 0.328 µM.
For `O=C(Nc1ccc([C@]23CN[C@H](CO2)C3)cc1)c1ccc(Cl)cc1` [Example 58, 4-Chloro-N-[4-[(1S,4R)-5-oxa-2-azabicyclo[2.2.1]heptan-4-yl]phenyl]benzamide], the Ki on mouse TAAR1 amounted to 0.016 µM; at rat TAAR1 it was 0.071 µM.
`Clc1ccc(Nc2ccc(C34CCC(CO3)NC4)cc2)nc1` (racemic) [Example 3, (RS)-5-Chloro-N-[4-(5-oxa-2-azabicyclo[2.2.2]octan-4-yl)phenyl]pyridin-2-amine]: the Ki was 0.0141 µM at mouse TAAR1 and 2.46 µM at rat TAAR1.
